In this test the target is hQC (Homo sapiens, UniProt Q16769). The experiment in a line: Inhibitor assay for glutaminyl cyclase activity (fluorometric, H-Gln-βNA / H-Gln-AMC). The format is biochemical. The method, boiled down:
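Coupled fluorometric assay at 30 °C with pyroglutamyl aminopeptidase, in Tris/HCl pH 8.0 with EDTA, substrate H-Gln-βNA (0.2 mM; ex/em 320/410 nm) or H-Gln-AMC (ex/em 380/460 nm), initiated by QC. Screening: 4 mM inhibitor, substrate at 1 KM; Ki from progress curves fitted to competitive inhibition.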

The mark [1] stands for this setting: compound from preparative synthesis, purified, read-out: IC50 hQC.

Read-outs that look alike come from different tables or passages of the source.

hQC, sequence (Q16769 29-361): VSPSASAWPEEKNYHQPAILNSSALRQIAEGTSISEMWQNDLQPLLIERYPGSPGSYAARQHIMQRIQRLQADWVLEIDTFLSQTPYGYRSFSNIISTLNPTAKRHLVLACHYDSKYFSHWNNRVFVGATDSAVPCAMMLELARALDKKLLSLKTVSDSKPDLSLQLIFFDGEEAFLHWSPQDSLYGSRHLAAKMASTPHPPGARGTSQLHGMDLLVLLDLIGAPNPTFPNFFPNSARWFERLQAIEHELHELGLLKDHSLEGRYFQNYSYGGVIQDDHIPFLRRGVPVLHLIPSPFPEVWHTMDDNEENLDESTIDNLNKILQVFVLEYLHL

Broadly, the IC50 is the point on the concentration scale where inhibition reaches its midpoint. As for `O=C1C(O)=C(c2ccc(O)cc2)C(c2cc[nH]n2)N1CCCn1ccnc1` (stereo not drawn) [Compound 151, 3-Hydroxy-4-(4-hydroxy-phenyl)-1-(3-imidazol-1-yl-propyl)-5-(1H-pyrazol-3-yl)-1,5-dihydro-pyrrol-2-one], where the note is “read-out: IC50”, the half-inhibitory concentration (IC50) was found to be 0.04 µM. Same read-out and setting: to `O=C1C(O)=C(c2ccc(O)cc2)C(C(O)CO)N1CCCn1ccnc1` (stereo not drawn) [Compound 152, 5-(1,2-Dihydroxy-ethyl)-3-hydroxy-4-(4-hydroxy-phenyl)-1-(3-imidazol-1-yl-propyl)-1,5-dihydro-pyrrol-2-one] belongs 0.4 µM; to `CC(C)/C=C/C1C(c2ccc(O)cc2)=C(O)C(=O)N1CCCn1ccnc1` (stereo not drawn) [Compound 153, 3-Hydroxy-4-(4-hydroxy-phenyl)-1-(3-imidazol-1-yl-propyl)-5-(3-methyl-but-1-enyl)-1,5-dihydro-pyrrol-2-one], 2.2 µM. For `Cc1ccc(C2C(c3ccc(O)cc3)=C(O)C(=O)N2CCCn2ccnc2)o1` (stereo not drawn) [Compound 154, 3-Hydroxy-4-(4-hydroxy-phenyl)-1-(3-imidazol-1-yl-propyl)-5-(5-methyl-furan-2-yl)-1,5-dihydro-pyrrol-2-one], the IC50 (read-out: IC50) was 0.04 µM. As to `O=C1C(O)=C(c2ccc(O)cc2)C(c2ccc3[nH]ccc3c2)N1CCCn1ccnc1` (stereo not drawn) [Compound 155, 3-Hydroxy-4-(4-hydroxy-phenyl)-1-(3-imidazol-1-yl-propyl)-5-(1H-indol-5-yl)-1,5-dihydro-pyrrol-2-one], the half-maximal inhibitory concentration (IC50) under setting [1] was found to be 0.37 µM and the IC50 (read-out: IC50) came out at 0.04 µM. Regarding `COc1ccc(C2C(c3ccc(O)cc3)=C(O)C(=O)N2CCCn2ccnc2)cc1` (stereo not drawn) [Compound 156, 3-Hydroxy-4-(4-hydroxy-phenyl)-1-(3-imidazol-1-yl-propyl)-5-(4-methoxy-phenyl)-1,5-dihydro-pyrrol-2-one], the IC50 turned out to be 0.088 µM under setting [1] and 0.04 µM (read-out: IC50).

Take `O=C1C(O)=C(c2ccc(O)cc2)C(c2ccccc2O)N1CCCn1ccnc1` (stereo not drawn) [Compound 157, 3-Hydroxy-5-(2-hydroxy-phenyl)-4-(4-hydroxy-phenyl)-1-(3-imidazol-1-yl-propyl)-1,5-dihydro-pyrrol-2-one]: the IC50 (read-out: IC50) stood at 0.04 µM. `Cc1ccc(C2C(c3ccc(O)cc3)=C(O)C(=O)N2CCCn2ccnc2)cc1C` (stereo not drawn) [Compound 158, 5-(3,4-Dimethyl-phenyl)-3-hydroxy-4-(4-hydroxy-phenyl)-1-(3-imidazol-1-yl-propyl)-1,5-dihydro-pyrrol-2-one]: the IC50 under setting [1] was determined as 0.214 µM and the IC50 (read-out: IC50) amounted to 0.04 µM. As to `CCCCCC1C(c2ccc(O)cc2)=C(O)C(=O)N1CCCn1ccnc1` (stereo not drawn) [Compound 159, 3-Hydroxy-4-(4-hydroxy-phenyl)-1-(3-imidazol-1-yl-propyl)-5-pentyl-1,5-dihydro-pyrrol-2-one], the half-maximal inhibitory concentration (IC50) (read-out: IC50) came to 0.04 µM.

Regarding `CC1C(c2ccc(O)cc2)=C(O)C(=O)N1CCCn1ccnc1` (stereo not drawn) [Compound 160, 3-Hydroxy-4-(4-hydroxy-phenyl)-1-(3-imidazol-1-yl-propyl)-5-methyl-1,5-dihydro-pyrrol-2-one], the IC50 (read-out: IC50) is 0.4 µM. `O=C1C(O)=C(c2ccc(O)cc2)C(c2ccc(CO)o2)N1CCCn1ccnc1` (stereo not drawn) [Compound 161, 3-Hydroxy-5-(5-hydroxymethyl-furan-2-yl)-4-(4-hydroxy-phenyl)-1-(3-imidazol-1-yl-propyl)-1,5-dihydro-pyrrol-2-one]: the IC50 (read-out: IC50) is 0.4 µM. On the same count and under the same terms, the figure for `O=C1C(O)=C(c2ccc(O)cc2)C(c2ccccc2)N1CCCn1ccnc1` (stereo not drawn) [Compound 162, 3-Hydroxy-4-(4-hydroxy-phenyl)-1-(3-imidazol-1-yl-propyl)-5-phenyl-1,5-dihydro-pyrrol-2-one] is 0.04 µM. Consider `O=C1C(O)=C(c2ccc(O)cc2)C(C2CCC=CO2)N1CCCn1ccnc1` (stereo not drawn) [Compound 163, 5-(3,4-Dihydro-2H-pyran-2-yl)-3-hydroxy-4-(4-hydroxy-phenyl)-1-(3-imidazol-1-yl-propyl)-1,5-dihydro-pyrrol-2-one], for which the IC50 under setting [1] is 0.559 µM and the half-inhibitory concentration (IC50) (read-out: IC50) was 0.04 µM. For `O=C1C(O)=C(c2ccc(O)cc2)C(C2=CCCCC2)N1CCCn1ccnc1` (stereo not drawn) [Compound 164, 5-Cyclohex-1-enyl-3-hydroxy-4-(4-hydroxy-phenyl)-1-(3-imidazol-1-yl-propyl)-1,5-dihydro-pyrrol-2-one], the IC50 (read-out: IC50) is 1.3 µM. Still for that read-out and setting: the figure for `Cc1ccc2c(C3C(c4ccc(O)cc4)=C(O)C(=O)N3CCCn3ccnc3)c[nH]c2c1` (stereo not drawn) [Compound 165, 3-Hydroxy-4-(4-hydroxy-phenyl)-1-(3-imidazol-1-yl-propyl)-5-(6-methyl-1H-indol-3-yl)-1,5-dihydro-pyrrol-2-one] is 0.04 µM; for `O=C1C(O)=C(c2ccc(O)cc2)C(C(F)(F)F)N1CCCn1ccnc1` (stereo not drawn) [Compound 166, 3-Hydroxy-4-(4-hydroxy-phenyl)-1-(3-imidazol-1-yl-propyl)-5-trifluoromethyl-1,5-dihydro-pyrrol-2-one] it is 0.4 µM. On the same count and under the same terms, the figure for `O=C1C(O)=C(c2ccc(O)cc2)C(c2c[nH]c3ccccc23)N1CCCn1ccnc1` (stereo not drawn) [Compound 167, 3-Hydroxy-4-(4-hydroxy-phenyl)-1-(3-imidazol-1-yl-propyl)-5-(1H-indol-3-yl)-1,5-dihydro-pyrrol-2-one] is 0.04 µM. The same measure, in the same setting: to `O=C1C(O)=C(c2ccc(O)cc2)C(c2ncc[nH]2)N1CCCn1ccnc1` (stereo not drawn) [Compound 168, 3-Hydroxy-4-(4-hydroxy-phenyl)-5-(1H-imidazol-2-yl)-1-(3-imidazol-1-yl-propyl)-1,5-dihydro-pyrrol-2-one] belongs 2.2 µM; to `O=C1C(O)=C(c2ccc(O)cc2)C(Cc2ccccc2)N1CCCn1ccnc1` (stereo not drawn) [Compound 169, 5-Benzyl-3-hydroxy-4-(4-hydroxy-phenyl)-1-(3-imidazol-1-yl-propyl)-1,5-dihydro-pyrrol-2-one], 0.04 µM. For `O=C1C(O)=C(c2ccc(O)cc2)C(c2c(O)ccc3ccccc23)N1CCCn1ccnc1` (stereo not drawn) [Compound 170, 3-Hydroxy-5-(2-hydroxy-naphthalen-1-yl)-4-(4-hydroxy-phenyl)-1-(3-imidazol-1-yl-propyl)-1,5-dihydro-pyrrol-2-one], the IC50 (read-out: IC50) is 1.3 µM. Take `O=C1C(O)=C(c2ccc(O)cc2)C(c2ccccn2)N1CCCn1ccnc1` (stereo not drawn) [Compound 171, 3-Hydroxy-4-(4-hydroxy-phenyl)-1-(3-imidazol-1-yl-propyl)-5-pyridin-2-yl-1,5-dihydro-pyrrol-2-one]: the half-inhibitory concentration (IC50) (read-out: IC50) is 0.4 µM. For the compound `O=C1C(O)=C(c2ccc(O)cc2)C(c2ccncc2)N1CCCn1ccnc1` (stereo not drawn) [Compound 172, 3-Hydroxy-4-(4-hydroxy-phenyl)-1-(3-imidazol-1-yl-propyl)-5-pyridin-4-yl-1,5-dihydro-pyrrol-2-one], where the note is “read-out: IC50”, the 50% inhibitory concentration (IC50) turned out to be 7.6 µM. On the same count and under the same terms, the figure for `O=C1C(O)=C(c2ccc(O)cc2)C(c2cccs2)N1CCCn1ccnc1` (stereo not drawn) [Compound 173, 3-Hydroxy-4-(4-hydroxy-phenyl)-1-(3-imidazol-1-yl-propyl)-5-thiophen-2-yl-1,5-dihydro-pyrrol-2-one] is 0.04 µM. Take `O=C1C(O)=C(c2ccc(O)cc2)C(CO)N1CCCn1ccnc1` (stereo not drawn) [Compound 174, 3-Hydroxy-5-hydroxymethyl-4-(4-hydroxy-phenyl)-1-(3-imidazol-1-yl-propyl)-1,5-dihydro-pyrrol-2-one]: under “read-out: IC50”, the IC50 amounted to 0.4 µM. Same read-out and setting: the figure for `O=C1C(O)=C(c2ccc(O)cc2)C(C2CC2)N1CCCn1ccnc1` (stereo not drawn) [Compound 175, 5-Cyclopropyl-3-hydroxy-4-(4-hydroxy-phenyl)-1-(3-imidazol-1-yl-propyl)-1,5-dihydro-pyrrol-2-one] is 0.04 µM; for `O=C1C(O)=C(c2ccc(O)cc2)C(c2ccco2)N1CCCn1ccnc1` (stereo not drawn) [Compound 176, 5-Furan-2-yl-3-hydroxy-4-(4-hydroxy-phenyl)-1-(3-imidazol-1-yl-propyl)-1,5-dihydro-pyrrol-2-one] it is 0.04 µM.

In the case of `CCCCC1C(c2ccc(O)cc2)=C(O)C(=O)N1CCCn1ccnc1` (stereo not drawn) [Compound 177, 5-Butyl-3-hydroxy-4-(4-hydroxy-phenyl)-1-(3-imidazol-1-yl-propyl)-1,5-dihydro-pyrrol-2-one], the half-inhibitory concentration (IC50) (read-out: IC50) is 0.04 µM. The same measure, in the same setting: the figure for `CCC1C(c2ccc(O)cc2)=C(O)C(=O)N1CCCn1ccnc1` (stereo not drawn) [Compound 178, 5-Ethyl-3-hydroxy-4-(4-hydroxy-phenyl)-1-(3-imidazol-1-yl-propyl)-1,5-dihydro-pyrrol-2-one] is 0.4 µM; for `O=C1C(O)=C(c2ccc(O)cc2)C(c2cccc(Cl)c2)N1CCCn1ccnc1` (stereo not drawn) [Compound 179, 5-(3-Chloro-phenyl)-3-hydroxy-4-(4-hydroxy-phenyl)-1-(3-imidazol-1-yl-propyl)-1,5-dihydro-pyrrol-2-one] it is 0.04 µM. In the case of `O=C1C(O)=C(c2ccc(O)cc2)C(c2ccccc2F)N1CCCn1ccnc1` (stereo not drawn) [Compound 180, 5-(2-Fluoro-phenyl)-3-hydroxy-4-(4-hydroxy-phenyl)-1-(3-imidazol-1-yl-propyl)-1,5-dihydro-pyrrol-2-one], the IC50 runs as follows: under setting [1], 0.344 µM; (read-out: IC50) 0.04 µM.

As for `O=C1C(O)=C(c2ccc(O)cc2)C(c2ccc(O)cc2)N1CCCn1ccnc1` (stereo not drawn) [Compound 181, 3-Hydroxy-4,5-bis-(4-hydroxy-phenyl)-1-(3-imidazol-1-yl-propyl)-1,5-dihydro-pyrrol-2-one], the 50% inhibitory concentration (IC50) (read-out: IC50) turned out to be 0.04 µM.

As for `O=C1C(O)=C(c2ccc(O)cc2)C(c2cccc(O)c2)N1CCCn1ccnc1` (stereo not drawn) [Compound 182, 3-Hydroxy-5-(3-hydroxy-phenyl)-4-(4-hydroxy-phenyl)-1-(3-imidazol-1-yl-propyl)-1,5-dihydro-pyrrol-2-one], the 50% inhibitory concentration (IC50) (read-out: IC50) was determined as 0.04 µM. Still for that read-out and setting: the figure for `CCCCCC1=C(O)C(=O)N(CCCn2ccnc2)C1c1cc(Cl)cc(Cl)c1O` (stereo not drawn) [Compound 183, 5-(3,5-Dichloro-2-hydroxy-phenyl)-3-hydroxy-1-(3-imidazol-1-yl-propyl)-4-pentyl-1,5-dihydro-pyrrol-2-one] is 0.04 µM; for `CCCCCC1=C(O)C(=O)N(CCCn2ccnc2)C1c1ccc(C)cc1` (stereo not drawn) [Compound 184, 3-Hydroxy-1-(3-imidazol-1-yl-propyl)-4-pentyl-5-p-tolyl-1,5-dihydro-pyrrol-2-one] it is 0.04 µM.

The values are drawn from patent publication US8278345B2, “Inhibitors of glutaminyl cyclase” (Probiodrug AG, priority 2006, dated 2012).
